Data: ChEMBL document CHEMBL4482303, “Test system for measuring mest activity as well as methods and uses involving the same” (2012)

Experiments:
[1] = molecular target: T1, Mesoderm-specific transcript homolog protein (Homo sapiens) (UniProt Q5EB52); test: (§1) Inhibition of human recombinant MEST T579B (2 to 335 amino acids) expressed in Sf9 cell membranes assessed as reduction in glycerol 3-phosphate acyltransferase activity at 10 uM using [3H]-glycerol 3-phosphate and palmitoyl CoA incubated for 60 mins by scintillation counting assay relative to control
T1 sequence (whole entry): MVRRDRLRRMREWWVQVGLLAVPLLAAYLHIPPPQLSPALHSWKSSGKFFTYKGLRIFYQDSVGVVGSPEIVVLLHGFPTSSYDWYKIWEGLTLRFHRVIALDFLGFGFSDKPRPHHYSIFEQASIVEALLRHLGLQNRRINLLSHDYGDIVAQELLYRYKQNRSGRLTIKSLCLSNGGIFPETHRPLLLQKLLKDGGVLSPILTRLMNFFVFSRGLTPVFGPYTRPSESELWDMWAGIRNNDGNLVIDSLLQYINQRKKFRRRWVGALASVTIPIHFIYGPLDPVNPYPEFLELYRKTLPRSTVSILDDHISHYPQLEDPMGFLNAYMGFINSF

[2] = molecular target: T1, Mesoderm-specific transcript homolog protein (Homo sapiens); test: (§2) Inhibition of human recombinant MEST T579B (2 to 335 amino acids) expressed in Sf9 cell membranes assessed as reduction in glycerol 3-phosphate acyltransferase activity at 3 uM using [3H]-glycerol 3-phosphate and palmitoyl CoA incubated for 60 mins by scintillation counting assay relative to control
[3] = molecular target: T1, Mesoderm-specific transcript homolog protein (Homo sapiens); test: (§3) Inhibition of human recombinant MEST T579B (2 to 335 amino acids) expressed in Sf9 cell membranes assessed as reduction in glycerol 3-phosphate acyltransferase activity at 1 uM using [3H]-glycerol 3-phosphate and palmitoyl CoA incubated for 60 mins by scintillation counting assay relative to control
[4] = molecular target: T1, Mesoderm-specific transcript homolog protein (Homo sapiens); test: as §1, with “0.3” for “10”
[5] = molecular target: T1, Mesoderm-specific transcript homolog protein (Homo sapiens); test: Inhibition of human recombinant MEST T579B (2 to 335 amino acids) expressed in Sf9 cell membranes assessed as reduction in glycerol 3-phosphate acyltransferase activity using [3H]-glycerol 3-phosphate and palmitoyl CoA incubated for 60 mins by scintillation counting assay
[6] = molecular target: T1, Mesoderm-specific transcript homolog protein (Homo sapiens); test: as §1, with “0.1” for “10”
[7] = molecular target: T1, Mesoderm-specific transcript homolog protein (Homo sapiens); test: as §1, with “0.03” for “10”
[8] = molecular target: T2, Glycerol-3-phosphate acyltransferase 1, mitochondrial (Homo sapiens) (UniProt Q9HCL2); test: Inhibition of GPAT1 (unknown origin) expressed in Sf9 cell membranes assessed as reduction in glycerol 3-phosphate acyltransferase activity at 10 uM using [3H]-glycerol 3-phosphate and palmitoyl CoA incubated for 60 mins by scintillation counting assay relative to control
T2 sequence (whole entry): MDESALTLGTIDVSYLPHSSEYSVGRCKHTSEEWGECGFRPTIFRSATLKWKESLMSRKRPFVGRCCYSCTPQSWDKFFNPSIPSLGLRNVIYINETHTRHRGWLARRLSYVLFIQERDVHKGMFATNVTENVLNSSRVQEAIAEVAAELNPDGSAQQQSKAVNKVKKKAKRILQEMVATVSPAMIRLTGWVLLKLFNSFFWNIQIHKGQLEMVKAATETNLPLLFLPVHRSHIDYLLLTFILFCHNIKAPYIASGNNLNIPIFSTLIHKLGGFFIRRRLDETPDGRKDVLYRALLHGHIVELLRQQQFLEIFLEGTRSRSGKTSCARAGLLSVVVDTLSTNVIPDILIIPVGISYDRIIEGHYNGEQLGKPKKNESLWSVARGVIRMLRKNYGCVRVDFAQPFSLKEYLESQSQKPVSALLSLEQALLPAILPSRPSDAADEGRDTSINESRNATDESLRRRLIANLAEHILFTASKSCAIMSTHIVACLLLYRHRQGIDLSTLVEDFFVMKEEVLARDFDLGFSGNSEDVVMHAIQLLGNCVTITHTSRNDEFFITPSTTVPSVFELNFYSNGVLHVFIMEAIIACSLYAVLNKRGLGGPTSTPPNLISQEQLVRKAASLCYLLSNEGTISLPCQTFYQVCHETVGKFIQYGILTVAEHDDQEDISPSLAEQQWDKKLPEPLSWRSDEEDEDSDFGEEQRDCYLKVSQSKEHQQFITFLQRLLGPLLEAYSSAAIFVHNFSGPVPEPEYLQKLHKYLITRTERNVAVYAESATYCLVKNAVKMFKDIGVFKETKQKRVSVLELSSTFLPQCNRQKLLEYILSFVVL

[9] = molecular target: T2, Glycerol-3-phosphate acyltransferase 1, mitochondrial (Homo sapiens); test: Inhibition of GPAT1 (unknown origin) expressed in Sf9 cell membranes assessed as reduction in glycerol 3-phosphate acyltransferase activity at 3 uM using [3H]-glycerol 3-phosphate and palmitoyl CoA incubated for 60 mins by scintillation counting assay relative to control
[10] = molecular target: T2, Glycerol-3-phosphate acyltransferase 1, mitochondrial (Homo sapiens); test: Inhibition of GPAT1 (unknown origin) expressed in Sf9 cell membranes assessed as reduction in glycerol 3-phosphate acyltransferase activity at 1 uM using [3H]-glycerol 3-phosphate and palmitoyl CoA incubated for 60 mins by scintillation counting assay relative to control
[11] = molecular target: T2, Glycerol-3-phosphate acyltransferase 1, mitochondrial (Homo sapiens); test: Inhibition of GPAT1 (unknown origin) expressed in Sf9 cell membranes assessed as reduction in glycerol 3-phosphate acyltransferase activity at 0.3 uM using [3H]-glycerol 3-phosphate and palmitoyl CoA incubated for 60 mins by scintillation counting assay relative to control
[12] = molecular target: T2, Glycerol-3-phosphate acyltransferase 1, mitochondrial (Homo sapiens); test: Inhibition of GPAT1 (unknown origin) expressed in Sf9 cell membranes assessed as reduction in glycerol 3-phosphate acyltransferase activity at 0.1 uM using [3H]-glycerol 3-phosphate and palmitoyl CoA incubated for 60 mins by scintillation counting assay relative to control
[13] = molecular target: T2, Glycerol-3-phosphate acyltransferase 1, mitochondrial (Homo sapiens); test: Inhibition of GPAT1 (unknown origin) expressed in Sf9 cell membranes assessed as reduction in glycerol 3-phosphate acyltransferase activity at 0.03 uM using [3H]-glycerol 3-phosphate and palmitoyl CoA incubated for 60 mins by scintillation counting assay relative to control
[14] = molecular target: T3, Glycerol-3-phosphate acyltransferase 3 (Homo sapiens) (UniProt Q53EU6); test: Inhibition of GPAT3 (unknown origin) expressed in Sf9 cell membranes assessed as reduction in glycerol 3-phosphate acyltransferase activity at 10 uM using [3H]-glycerol 3-phosphate and palmitoyl CoA incubated for 60 mins by scintillation counting assay relative to control
T3 sequence (whole entry): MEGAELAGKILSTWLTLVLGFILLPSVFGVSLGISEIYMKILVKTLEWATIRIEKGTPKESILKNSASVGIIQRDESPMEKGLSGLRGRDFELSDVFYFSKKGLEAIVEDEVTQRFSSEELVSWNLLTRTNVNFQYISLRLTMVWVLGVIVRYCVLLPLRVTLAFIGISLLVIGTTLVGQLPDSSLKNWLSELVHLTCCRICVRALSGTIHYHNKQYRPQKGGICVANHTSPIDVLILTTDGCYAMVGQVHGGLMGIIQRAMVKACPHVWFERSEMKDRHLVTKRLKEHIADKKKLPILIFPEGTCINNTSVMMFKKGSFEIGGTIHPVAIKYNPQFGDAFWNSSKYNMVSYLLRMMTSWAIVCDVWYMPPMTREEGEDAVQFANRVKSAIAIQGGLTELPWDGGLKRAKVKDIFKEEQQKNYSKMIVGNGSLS

[15] = molecular target: T3, Glycerol-3-phosphate acyltransferase 3 (Homo sapiens); test: Inhibition of GPAT3 (unknown origin) expressed in Sf9 cell membranes assessed as reduction in glycerol 3-phosphate acyltransferase activity at 3 uM using [3H]-glycerol 3-phosphate and palmitoyl CoA incubated for 60 mins by scintillation counting assay relative to control
[16] = molecular target: T3, Glycerol-3-phosphate acyltransferase 3 (Homo sapiens); test: Inhibition of GPAT3 (unknown origin) expressed in Sf9 cell membranes assessed as reduction in glycerol 3-phosphate acyltransferase activity at 1 uM using [3H]-glycerol 3-phosphate and palmitoyl CoA incubated for 60 mins by scintillation counting assay relative to control
[17] = molecular target: T3, Glycerol-3-phosphate acyltransferase 3 (Homo sapiens); test: Inhibition of GPAT3 (unknown origin) expressed in Sf9 cell membranes assessed as reduction in glycerol 3-phosphate acyltransferase activity at 0.3 uM using [3H]-glycerol 3-phosphate and palmitoyl CoA incubated for 60 mins by scintillation counting assay relative to control
[18] = molecular target: T3, Glycerol-3-phosphate acyltransferase 3 (Homo sapiens); test: Inhibition of GPAT3 (unknown origin) expressed in Sf9 cell membranes assessed as reduction in glycerol 3-phosphate acyltransferase activity at 0.1 uM using [3H]-glycerol 3-phosphate and palmitoyl CoA incubated for 60 mins by scintillation counting assay relative to control
[19] = molecular target: T3, Glycerol-3-phosphate acyltransferase 3 (Homo sapiens); test: Inhibition of GPAT3 (unknown origin) expressed in Sf9 cell membranes assessed as reduction in glycerol 3-phosphate acyltransferase activity at 0.03 uM using [3H]-glycerol 3-phosphate and palmitoyl CoA incubated for 60 mins by scintillation counting assay relative to control
[20] = molecular target: T4, Glycerol-3-phosphate acyltransferase 4 (Homo sapiens) (UniProt Q86UL3); test: Inhibition of GPAT4 (unknown origin) expressed in Sf9 cell membranes assessed as reduction in glycerol 3-phosphate acyltransferase activity at 10 uM using [3H]-glycerol 3-phosphate and palmitoyl CoA incubated for 60 mins by scintillation counting assay relative to control
T4 sequence (whole entry): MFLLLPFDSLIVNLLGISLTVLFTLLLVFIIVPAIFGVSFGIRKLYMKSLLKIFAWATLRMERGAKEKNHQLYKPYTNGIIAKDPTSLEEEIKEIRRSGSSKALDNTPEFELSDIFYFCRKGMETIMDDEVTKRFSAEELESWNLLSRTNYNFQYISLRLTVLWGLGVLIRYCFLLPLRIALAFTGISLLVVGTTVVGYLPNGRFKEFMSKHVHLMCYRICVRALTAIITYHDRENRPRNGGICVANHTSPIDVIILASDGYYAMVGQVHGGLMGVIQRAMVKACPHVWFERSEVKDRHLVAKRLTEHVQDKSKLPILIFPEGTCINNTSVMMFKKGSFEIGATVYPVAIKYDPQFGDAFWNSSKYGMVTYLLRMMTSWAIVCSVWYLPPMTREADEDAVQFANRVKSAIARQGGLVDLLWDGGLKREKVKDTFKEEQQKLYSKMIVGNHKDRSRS

[21] = molecular target: T4, Glycerol-3-phosphate acyltransferase 4 (Homo sapiens); test: Inhibition of GPAT4 (unknown origin) expressed in Sf9 cell membranes assessed as reduction in glycerol 3-phosphate acyltransferase activity at 3 uM using [3H]-glycerol 3-phosphate and palmitoyl CoA incubated for 60 mins by scintillation counting assay relative to control
[22] = molecular target: T4, Glycerol-3-phosphate acyltransferase 4 (Homo sapiens); test: Inhibition of GPAT4 (unknown origin) expressed in Sf9 cell membranes assessed as reduction in glycerol 3-phosphate acyltransferase activity at 1 uM using [3H]-glycerol 3-phosphate and palmitoyl CoA incubated for 60 mins by scintillation counting assay relative to control
[23] = molecular target: T4, Glycerol-3-phosphate acyltransferase 4 (Homo sapiens); test: Inhibition of GPAT4 (unknown origin) expressed in Sf9 cell membranes assessed as reduction in glycerol 3-phosphate acyltransferase activity at 0.3 uM using [3H]-glycerol 3-phosphate and palmitoyl CoA incubated for 60 mins by scintillation counting assay relative to control
[24] = molecular target: T4, Glycerol-3-phosphate acyltransferase 4 (Homo sapiens); test: Inhibition of GPAT4 (unknown origin) expressed in Sf9 cell membranes assessed as reduction in glycerol 3-phosphate acyltransferase activity at 0.1 uM using [3H]-glycerol 3-phosphate and palmitoyl CoA incubated for 60 mins by scintillation counting assay relative to control
[25] = molecular target: T4, Glycerol-3-phosphate acyltransferase 4 (Homo sapiens); test: Inhibition of GPAT4 (unknown origin) expressed in Sf9 cell membranes assessed as reduction in glycerol 3-phosphate acyltransferase activity at 0.03 uM using [3H]-glycerol 3-phosphate and palmitoyl CoA incubated for 60 mins by scintillation counting assay relative to control
[26] = molecular target: T1, Mesoderm-specific transcript homolog protein (Homo sapiens); test: as §1, with “T580B (11” for “T579B (2”
[27] = molecular target: T1, Mesoderm-specific transcript homolog protein (Homo sapiens); test: as §2, with “T580B (11” for “T579B (2”
[28] = molecular target: T1, Mesoderm-specific transcript homolog protein (Homo sapiens); test: as §3, with “T580B (11” for “T579B (2”
[29] = molecular target: T1, Mesoderm-specific transcript homolog protein (Homo sapiens); test: as §1, with “T580B (11” for “T579B (2”, “0.3” for “10”
[30] = molecular target: T1, Mesoderm-specific transcript homolog protein (Homo sapiens); test: as §1, with “T580B (11” for “T579B (2”, “0.1” for “10”
[31] = molecular target: T1, Mesoderm-specific transcript homolog protein (Homo sapiens); test: as §1, with “T580B (11” for “T579B (2”, “0.03” for “10”

- inhibition [1]: 69%
- inhibition [2]: 51%
- inhibition [3]: 27%
- inhibition [4]: 24%
- inhibition [5]: Dose-dependent effect
- inhibition [6]: -6%
- inhibition [7]: -5%
- inhibition [8]: 72%
- inhibition [9]: 47%
- inhibition [10]: 29%
- inhibition [11]: 11%
- inhibition [12]: 10%
- inhibition [13]: 4%
- inhibition [14]: 57%
- inhibition [15]: 38%
- inhibition [16]: 26%
- inhibition [17]: 12%
- inhibition [18]: -4%
- inhibition [19]: -9%
- inhibition [20]: 54%
- inhibition [21]: 29%
- inhibition [22]: 9%
- inhibition [23]: 15%
- inhibition [24]: -2%
- inhibition [25]: 6%
- inhibition [26]: 76%
- inhibition [27]: 45%
- inhibition [28]: 18%
- inhibition [29]: 8%
- inhibition [30]: 10%
- inhibition [31]: -6%
Compound: O=C(CO)COP(=O)(O)O
